From PubChem BioAssay (NCI)
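Briefly, cells in 96-well plates were exposed to five compound concentrations for 48 h, and endpoints were estimated by linear interpolation. GI50: concentration for 50% inhibition of growth. At the TGI there is no net growth.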

Assays:
Experiment in all cases: DTP human tumour cell line panel, 48 h
SW-620 colon = test system: SW-620 colon
DLD-1 colon = test system: DLD-1 colon
LOX IMVI melanoma = test system: LOX IMVI melanoma
OVCAR-5 ovarian = test system: OVCAR-5 ovarian
M14 melanoma = test system: M14 melanoma
A498 renal = test system: A498 renal
KM20L2 colon = test system: KM20L2 colon
SK-MEL-5 melanoma = test system: SK-MEL-5 melanoma
HCC-2998 colon = test system: HCC-2998 colon
SNB-19 CNS = test system: SNB-19 CNS
SN12C renal = test system: SN12C renal
SNB-78 CNS = test system: SNB-78 CNS
HOP-62 NSCLC = test system: HOP-62 NSCLC
UACC-62 melanoma = test system: UACC-62 melanoma
A549 NSCLC = test system: A549 NSCLC
RPMI-8226 leukemia = test system: RPMI-8226 leukemia
U251 CNS = test system: U251 CNS
K-562 leukemia = test system: K-562 leukemia
786-0 renal = test system: 786-0 renal
SF-539 CNS = test system: SF-539 CNS
IGROV1 ovarian = test system: IGROV1 ovarian
SNB-75 CNS = test system: SNB-75 CNS
SK-OV-3 ovarian = test system: SK-OV-3 ovarian
CAKI-1 renal = test system: CAKI-1 renal
HL-60(TB) leukemia = test system: HL-60(TB) leukemia
OVCAR-8 ovarian = test system: OVCAR-8 ovarian
SK-MEL-28 melanoma = test system: SK-MEL-28 melanoma
TK-10 renal = test system: TK-10 renal
MOLT-4 leukemia = test system: MOLT-4 leukemia
HCT-15 colon = test system: HCT-15 colon
UACC-257 melanoma = test system: UACC-257 melanoma
UO-31 renal = test system: UO-31 renal
HCT-116 colon = test system: HCT-116 colon
MALME-3M melanoma = test system: MALME-3M melanoma
ACHN renal = test system: ACHN renal
OVCAR-3 ovarian = test system: OVCAR-3 ovarian
NCI-H226 lung = test system: NCI-H226 lung
CCRF-CEM leukemia = test system: CCRF-CEM leukemia
HOP-18 NSCLC = test system: HOP-18 NSCLC
LXFL 529 NSCLC = test system: LXFL 529 NSCLC
SF-268 CNS = test system: SF-268 CNS
HT29 colon = test system: HT29 colon
SK-MEL-2 melanoma = test system: SK-MEL-2 melanoma
RXF 393 renal = test system: RXF 393 renal
COLO 205 colon = test system: COLO 205 colon
DMS 273 small cell lung = test system: DMS 273 small cell lung
OVCAR-4 ovarian = test system: OVCAR-4 ovarian
KM12 colon = test system: KM12 colon
SF-295 CNS = test system: SF-295 CNS
NCI-H23 lung = test system: NCI-H23 lung
NCI-H460 lung = test system: NCI-H460 lung
NCI-H522 lung = test system: NCI-H522 lung
EKVX NSCLC = test system: EKVX NSCLC
HOP-92 NSCLC = test system: HOP-92 NSCLC
SR leukemia = test system: SR leukemia
M19-MEL melanoma = test system: M19-MEL melanoma
DMS 114 small cell lung = test system: DMS 114 small cell lung

In the case of `CC(CN(CP(=O)([O-])[O-])CP(=O)([O-])[O-])N(CP(=O)([O-])[O-])CP(=O)([O-])[O-].N.N.[Pt+2]` (stereo not given), the GI50 (SW-620 colon) is reported as greater than 100 µM, the TGI (SW-620 colon) is reported as greater than 100 µM and the GI50 (DLD-1 colon) is reported as greater than 100 µM. The TGI (DLD-1 colon) was greater than 100 µM, the GI50 (LOX IMVI melanoma) was greater than 100 µM and the TGI (LOX IMVI melanoma) was greater than 100 µM. For the same molecule, the GI50 (OVCAR-5 ovarian) was greater than 100 µM, the TGI (OVCAR-5 ovarian) was greater than 100 µM and the GI50 (M14 melanoma) was greater than 100 µM. For the same molecule, the TGI (M14 melanoma) was greater than 100 µM, the GI50 (A498 renal) was greater than 100 µM and the TGI (A498 renal) was greater than 100 µM. It also gave a GI50 (KM20L2 colon) greater than 100 µM, a TGI (KM20L2 colon) greater than 100 µM and a GI50 (SK-MEL-5 melanoma) greater than 100 µM. It also gave a TGI (SK-MEL-5 melanoma) greater than 100 µM, a GI50 (HCC-2998 colon) greater than 100 µM and a TGI (HCC-2998 colon) greater than 100 µM. It also gave a GI50 (SNB-19 CNS) greater than 100 µM, a TGI (SNB-19 CNS) greater than 100 µM and a GI50 (SN12C renal) greater than 100 µM. It also gave a TGI (SN12C renal) greater than 100 µM, a GI50 (SNB-78 CNS) greater than 100 µM and a TGI (SNB-78 CNS) greater than 100 µM. It also gave a GI50 (HOP-62 NSCLC) greater than 100 µM, a TGI (HOP-62 NSCLC) greater than 100 µM and a GI50 (UACC-62 melanoma) greater than 100 µM. For the same molecule, the TGI (UACC-62 melanoma) was greater than 100 µM, the GI50 (A549 NSCLC) was greater than 100 µM and the TGI (A549 NSCLC) was greater than 100 µM. For the same molecule, the GI50 (RPMI-8226 leukemia) was greater than 100 µM, the TGI (RPMI-8226 leukemia) was greater than 100 µM and the GI50 (U251 CNS) was greater than 100 µM. The TGI (U251 CNS) was greater than 100 µM, the GI50 (K-562 leukemia) was greater than 100 µM and the TGI (K-562 leukemia) was greater than 100 µM. The GI50 (786-0 renal) was greater than 100 µM, the TGI (786-0 renal) was greater than 100 µM and the GI50 (SF-539 CNS) was greater than 100 µM. For the same molecule, the TGI (SF-539 CNS) was greater than 100 µM, the GI50 (IGROV1 ovarian) was greater than 100 µM and the TGI (IGROV1 ovarian) was greater than 100 µM. It also gave a GI50 (SNB-75 CNS) greater than 100 µM, a TGI (SNB-75 CNS) greater than 100 µM and a GI50 (SK-OV-3 ovarian) greater than 100 µM. It also gave a TGI (SK-OV-3 ovarian) greater than 100 µM, a GI50 (CAKI-1 renal) greater than 100 µM and a TGI (CAKI-1 renal) greater than 100 µM. The GI50 (HL-60(TB) leukemia) was greater than 100 µM, the TGI (HL-60(TB) leukemia) was greater than 100 µM and the GI50 (OVCAR-8 ovarian) was greater than 100 µM. For the same molecule, the TGI (OVCAR-8 ovarian) was greater than 100 µM, the GI50 (SK-MEL-28 melanoma) was greater than 100 µM and the TGI (SK-MEL-28 melanoma) was greater than 100 µM. The GI50 (TK-10 renal) was greater than 100 µM, the TGI (TK-10 renal) was greater than 100 µM and the GI50 (MOLT-4 leukemia) was greater than 100 µM. The TGI (MOLT-4 leukemia) was greater than 100 µM, the GI50 (HCT-15 colon) was greater than 100 µM and the TGI (HCT-15 colon) was greater than 100 µM. It also gave a GI50 (UACC-257 melanoma) greater than 100 µM, a TGI (UACC-257 melanoma) greater than 100 µM and a GI50 (UO-31 renal) greater than 100 µM. The TGI (UO-31 renal) was greater than 100 µM, the GI50 (HCT-116 colon) was greater than 100 µM and the TGI (HCT-116 colon) was greater than 100 µM. The GI50 (MALME-3M melanoma) was greater than 100 µM, the TGI (MALME-3M melanoma) was greater than 100 µM and the GI50 (ACHN renal) was greater than 100 µM. The TGI (ACHN renal) was greater than 100 µM, the GI50 (OVCAR-3 ovarian) was greater than 100 µM and the TGI (OVCAR-3 ovarian) was greater than 100 µM. For the same molecule, the GI50 (NCI-H226 lung) was greater than 100 µM, the TGI (NCI-H226 lung) was greater than 100 µM and the GI50 (CCRF-CEM leukemia) was greater than 100 µM. For the same molecule, the TGI (CCRF-CEM leukemia) was greater than 100 µM, the GI50 (HOP-18 NSCLC) was 26.1 µM and the TGI (HOP-18 NSCLC) was greater than 100 µM. For the same molecule, the GI50 (LXFL 529 NSCLC) was greater than 100 µM, the TGI (LXFL 529 NSCLC) was greater than 100 µM and the GI50 (SF-268 CNS) was greater than 100 µM. It also gave a TGI (SF-268 CNS) greater than 100 µM, a GI50 (HT29 colon) greater than 100 µM and a TGI (HT29 colon) greater than 100 µM. For the same molecule, the GI50 (SK-MEL-2 melanoma) was greater than 100 µM, the TGI (SK-MEL-2 melanoma) was greater than 100 µM and the GI50 (RXF 393 renal) was greater than 100 µM. It also gave a TGI (RXF 393 renal) greater than 100 µM, a GI50 (COLO 205 colon) greater than 100 µM and a TGI (COLO 205 colon) greater than 100 µM. For the same molecule, the GI50 (DMS 273 small cell lung) was greater than 100 µM, the TGI (DMS 273 small cell lung) was greater than 100 µM and the GI50 (OVCAR-4 ovarian) was greater than 100 µM. The TGI (OVCAR-4 ovarian) was greater than 100 µM, the GI50 (KM12 colon) was greater than 100 µM and the TGI (KM12 colon) was greater than 100 µM. For the same molecule, the GI50 (SF-295 CNS) was greater than 100 µM, the TGI (SF-295 CNS) was greater than 100 µM and the GI50 (NCI-H23 lung) was greater than 100 µM. The TGI (NCI-H23 lung) was greater than 100 µM, the GI50 (NCI-H460 lung) was greater than 100 µM and the TGI (NCI-H460 lung) was greater than 100 µM. The GI50 (NCI-H522 lung) was greater than 100 µM, the TGI (NCI-H522 lung) was greater than 100 µM and the GI50 (EKVX NSCLC) was greater than 100 µM. It also gave a TGI (EKVX NSCLC) greater than 100 µM.
`CCO[C@@H]1OC(=O)[C@](C)(C(C)=O)[C@@H]1C` gave a TGI (OVCAR-5 ovarian) greater than 100 µM, a TGI (M14 melanoma) greater than 100 µM and a TGI (A498 renal) greater than 100 µM. The TGI (KM20L2 colon) was greater than 100 µM, the TGI (SNB-19 CNS) was greater than 100 µM and the TGI (HOP-92 NSCLC) was greater than 100 µM. It also gave a TGI (SNB-78 CNS) greater than 100 µM, a TGI (HOP-62 NSCLC) greater than 100 µM and a TGI (UACC-62 melanoma) greater than 100 µM. It also gave a TGI (RPMI-8226 leukemia) greater than 100 µM, a TGI (U251 CNS) greater than 100 µM and a TGI (K-562 leukemia) greater than 100 µM. For the same molecule, the TGI (SF-539 CNS) was greater than 100 µM, the TGI (IGROV1 ovarian) was greater than 100 µM and the TGI (SNB-75 CNS) was 98.4 µM. For the same molecule, the TGI (SK-OV-3 ovarian) was greater than 100 µM, the TGI (SR leukemia) was greater than 100 µM and the TGI (M19-MEL melanoma) was greater than 100 µM. For the same molecule, the TGI (HL-60(TB) leukemia) was 79.6 µM, the TGI (SK-MEL-28 melanoma) was greater than 100 µM and the TGI (MOLT-4 leukemia) was greater than 100 µM. For the same molecule, the TGI (UACC-257 melanoma) was greater than 100 µM, the TGI (UO-31 renal) was greater than 100 µM and the TGI (ACHN renal) was greater than 100 µM. The TGI (OVCAR-3 ovarian) was greater than 100 µM, the TGI (CCRF-CEM leukemia) was 89.5 µM and the TGI (LXFL 529 NSCLC) was greater than 100 µM. The TGI (SF-268 CNS) was 67.8 µM, the TGI (DMS 114 small cell lung) was greater than 100 µM and the TGI (HT29 colon) was greater than 100 µM. It also gave a TGI (SK-MEL-2 melanoma) greater than 100 µM, a TGI (RXF 393 renal) greater than 100 µM and a TGI (COLO 205 colon) greater than 100 µM. For the same molecule, the TGI (OVCAR-4 ovarian) was greater than 100 µM, the TGI (KM12 colon) was greater than 100 µM and the TGI (SF-295 CNS) was greater than 100 µM. It also gave a TGI (NCI-H23 lung) of 60.1 µM, a TGI (NCI-H460 lung) greater than 100 µM and a TGI (NCI-H522 lung) greater than 100 µM.
